Data set [1] has as its target T1, Beta-secretase 1 (Homo sapiens, UniProt P56817). Briefly: Inhibition of human recombinant BACE1 at 2.5 uM by fluorimetric assay.
In data set [2] the target is Amyloid-beta precursor protein (Homo sapiens) (UniProt P05067). Briefly: Inhibition of self-induced amyloid beta (1-42) aggregation at 50 uM by thioflavin T fluorescence method.
The nature of data set [3]: in vitro. The settings on record: PAMPA. For orientation: PAMPA measures passive passage across an artificial lipid membrane.
Description: Membrane permeability dissolved in PBS/EtOH (80:20) mixture by PAMPA-BBB assay
A further data set addresses Cholinesterase (Homo sapiens, UniProt P06276). Briefly: Inhibition of human serum BChE by Ellman's method. On the technique in general: Ellman's reagent forms a yellow product with free thiols.
The target of data set [4] is T2, Acetylcholinesterase (Bos taurus, UniProt P23795).
T2 sequence (P23795 whole entry): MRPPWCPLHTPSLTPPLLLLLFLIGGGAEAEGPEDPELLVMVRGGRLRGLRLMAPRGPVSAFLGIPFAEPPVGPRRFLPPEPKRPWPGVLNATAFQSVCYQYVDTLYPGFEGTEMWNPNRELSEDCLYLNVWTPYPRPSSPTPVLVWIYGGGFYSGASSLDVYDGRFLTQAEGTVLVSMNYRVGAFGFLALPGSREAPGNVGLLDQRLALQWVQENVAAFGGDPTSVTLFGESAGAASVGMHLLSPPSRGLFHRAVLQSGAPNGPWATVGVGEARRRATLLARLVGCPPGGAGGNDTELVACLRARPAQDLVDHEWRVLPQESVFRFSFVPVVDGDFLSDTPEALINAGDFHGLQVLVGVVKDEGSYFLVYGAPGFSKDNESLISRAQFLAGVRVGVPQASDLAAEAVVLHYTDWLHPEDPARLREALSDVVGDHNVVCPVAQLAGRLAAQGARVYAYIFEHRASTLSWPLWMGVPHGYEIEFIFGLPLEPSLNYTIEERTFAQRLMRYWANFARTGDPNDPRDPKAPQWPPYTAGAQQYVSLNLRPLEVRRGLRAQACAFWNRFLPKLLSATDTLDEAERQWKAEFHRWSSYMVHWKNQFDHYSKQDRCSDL
Briefly: Inhibition of bovine AChE by Ellman's method.

Data set [5] deals with T3, Acetylcholinesterase (Homo sapiens, UniProt P22303).
Description: Inhibition of AChE in human erythrocytes by Ellman's method
Data set [6] is described as follows: in vitro. The conditions noted are these: PAMPA. This is another data set of the same source.
Description: Membrane permeability dissolved in PBS/EtOH (70:30) mixture by PAMPA-BBB assay
In data set [7] the target is T1, Beta-secretase 1. Briefly: Inhibition of human recombinant BACE1 by fluorimetric assay.
The target of data set [8] is T3, Acetylcholinesterase. Put plainly: Inhibition of human recombinant AChE by Lineweaver-Burke reciprocal plot analysis.

Activity calls are given as the source filed them. No cut-off for these calls is given here.

What is called inhibition is the drop in the measured response relative to a control, in per cent. What is called Papp is the rate of passage across a membrane or cell layer, normalised by area and donor concentration. Read a low Papp as slow passage. The IC50 is the concentration that gives 50% inhibition. Broadly, the Ki is the equilibrium dissociation constant of an inhibitor or competing ligand from its target.

Chain of Amyloid-beta precursor protein (Homo sapiens) (P05067 whole entry): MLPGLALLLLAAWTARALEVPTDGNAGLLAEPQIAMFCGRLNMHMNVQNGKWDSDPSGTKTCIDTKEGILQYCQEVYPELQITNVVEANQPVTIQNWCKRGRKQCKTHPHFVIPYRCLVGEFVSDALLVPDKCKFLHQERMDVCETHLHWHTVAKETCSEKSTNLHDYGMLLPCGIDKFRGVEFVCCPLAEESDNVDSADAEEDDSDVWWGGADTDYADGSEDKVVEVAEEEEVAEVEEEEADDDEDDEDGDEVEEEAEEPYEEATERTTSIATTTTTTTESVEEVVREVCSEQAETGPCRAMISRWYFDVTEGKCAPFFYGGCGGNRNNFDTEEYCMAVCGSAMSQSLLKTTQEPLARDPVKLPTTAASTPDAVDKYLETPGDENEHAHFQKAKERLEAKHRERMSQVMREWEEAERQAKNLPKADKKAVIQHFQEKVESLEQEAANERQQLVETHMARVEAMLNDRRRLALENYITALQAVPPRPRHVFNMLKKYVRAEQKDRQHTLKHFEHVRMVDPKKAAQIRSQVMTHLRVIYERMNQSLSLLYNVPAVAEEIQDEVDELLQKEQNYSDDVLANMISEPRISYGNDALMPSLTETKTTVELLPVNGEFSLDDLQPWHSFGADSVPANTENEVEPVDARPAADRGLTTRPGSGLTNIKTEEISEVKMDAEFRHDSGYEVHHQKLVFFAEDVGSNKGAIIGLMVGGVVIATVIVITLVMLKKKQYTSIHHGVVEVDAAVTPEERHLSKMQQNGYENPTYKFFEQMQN
T3 sequence (P22303 whole entry): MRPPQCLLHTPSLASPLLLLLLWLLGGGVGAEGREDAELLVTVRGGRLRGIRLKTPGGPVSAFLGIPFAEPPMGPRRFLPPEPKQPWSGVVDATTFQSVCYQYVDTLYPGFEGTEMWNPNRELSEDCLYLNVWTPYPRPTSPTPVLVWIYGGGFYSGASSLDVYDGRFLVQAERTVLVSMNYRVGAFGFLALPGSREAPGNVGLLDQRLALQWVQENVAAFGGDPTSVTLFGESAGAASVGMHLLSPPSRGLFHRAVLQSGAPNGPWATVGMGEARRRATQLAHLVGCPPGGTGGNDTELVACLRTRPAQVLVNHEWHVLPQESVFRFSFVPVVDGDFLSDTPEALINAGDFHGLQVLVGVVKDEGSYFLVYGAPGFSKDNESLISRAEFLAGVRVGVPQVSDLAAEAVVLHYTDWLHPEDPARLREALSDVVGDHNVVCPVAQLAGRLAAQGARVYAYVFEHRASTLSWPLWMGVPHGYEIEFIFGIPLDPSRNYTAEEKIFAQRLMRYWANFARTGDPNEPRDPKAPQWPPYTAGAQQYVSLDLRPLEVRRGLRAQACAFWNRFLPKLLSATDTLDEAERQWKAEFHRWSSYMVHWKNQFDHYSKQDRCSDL
T1 sequence (P56817 whole entry): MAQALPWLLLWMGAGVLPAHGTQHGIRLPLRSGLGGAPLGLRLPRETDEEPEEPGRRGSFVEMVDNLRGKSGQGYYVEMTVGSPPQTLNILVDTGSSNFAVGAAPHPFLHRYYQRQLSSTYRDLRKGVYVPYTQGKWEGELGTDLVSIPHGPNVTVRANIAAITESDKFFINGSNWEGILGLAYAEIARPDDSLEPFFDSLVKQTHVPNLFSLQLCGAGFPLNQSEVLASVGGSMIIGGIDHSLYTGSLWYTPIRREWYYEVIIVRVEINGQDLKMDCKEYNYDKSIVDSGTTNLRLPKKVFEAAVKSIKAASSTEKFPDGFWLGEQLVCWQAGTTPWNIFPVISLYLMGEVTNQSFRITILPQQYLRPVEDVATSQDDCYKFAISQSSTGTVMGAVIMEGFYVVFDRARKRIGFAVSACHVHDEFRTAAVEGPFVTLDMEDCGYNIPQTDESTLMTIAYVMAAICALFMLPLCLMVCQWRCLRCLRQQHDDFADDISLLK
Chain of Cholinesterase (P06276 whole entry): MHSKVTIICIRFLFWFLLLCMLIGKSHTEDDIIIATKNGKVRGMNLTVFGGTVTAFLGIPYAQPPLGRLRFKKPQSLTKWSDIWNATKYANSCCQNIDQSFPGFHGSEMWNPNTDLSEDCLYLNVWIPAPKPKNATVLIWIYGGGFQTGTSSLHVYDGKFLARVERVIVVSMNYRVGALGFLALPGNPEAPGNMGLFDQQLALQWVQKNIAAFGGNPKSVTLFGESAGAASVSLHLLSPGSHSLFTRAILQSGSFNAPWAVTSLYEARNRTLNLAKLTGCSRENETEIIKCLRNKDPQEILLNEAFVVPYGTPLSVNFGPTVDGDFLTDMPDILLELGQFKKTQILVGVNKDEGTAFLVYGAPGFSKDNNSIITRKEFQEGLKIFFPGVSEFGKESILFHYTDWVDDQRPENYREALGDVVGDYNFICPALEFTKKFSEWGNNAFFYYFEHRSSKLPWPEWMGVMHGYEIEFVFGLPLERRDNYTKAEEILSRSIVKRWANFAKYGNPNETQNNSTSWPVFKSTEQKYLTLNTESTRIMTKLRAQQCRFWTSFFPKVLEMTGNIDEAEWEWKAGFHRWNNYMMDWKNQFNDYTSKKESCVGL

Turning to `Cl.Nc1c2c(nc3cc(Cl)ccc13)CCCC2`, the inhibition result at Beta-secretase 1 [1] is “inactive”. This molecule also showed an inhibition in data set [2] of 7.1%. In addition, in the data set “in vitro [3]”, the Papp came to 19.8 ×10⁻⁶ cm/s.
As for `Cl.Cl.Cl.O=C(CCc1ccc2nc(-c3ccccc3)c3c(c2c1)OCCC3)NCCCCCCNc1c2c(nc3cc(Cl)ccc13)CCCC2`, the inhibition on Beta-secretase 1 [1] came out at 19.6%; in data set [2], 30.8%. The figures for the IC50 against Cholinesterase, against Acetylcholinesterase [4] and at Acetylcholinesterase [5] were 218 nM, 30.8 nM and 11.1 nM, respectively. Moreover, in the data set “in vitro [3]”, the apparent permeability (Papp) was 13.2 ×10⁻⁶ cm/s.
With `Cl.Cl.Cl.O=C(CCc1ccc2nc(-c3ccccc3)c3c(c2c1)OCCC3)NCCCCCCCCNc1c2c(nc3cc(Cl)ccc13)CCCC2`, the inhibition stood at 77.8% on Beta-secretase 1 [1] and 47.3% in data set [2]. The molecule further gave an apparent permeability coefficient (Papp) in “in vitro [6]” of 10.1 ×10⁻⁶ cm/s. Besides, the IC50 against Cholinesterase amounted to 1080 nM; at Beta-secretase 1 [7], 1810 nM; against Acetylcholinesterase [4] it was 34.1 nM; on Acetylcholinesterase [5], 14 nM.
Turning to `O=C(NCCCCCCCCCNc1c2c(nc3cc(Cl)ccc13)CCCC2)c1ccc2nc(-c3ccc(Cl)cc3)c3c(c2c1)OCCC3`, the IC50 at Cholinesterase turned out to be 1390 nM; against Acetylcholinesterase [4], 24 nM; against Acetylcholinesterase [5], 24.9 nM.
On the same counts, the results for `CCOC(=O)c1ccc2nc(-c3ccc(Cl)cc3)c3c(c2c1)OCCC3` are over 10000 nM, over 10000 nM and over 10000 nM.
`Cl.Cl.Cl.O=C(CCc1ccc2nc(-c3ccccc3)c3c(c2c1)OCCC3)NCCCCNc1c2c(nc3cc(Cl)ccc13)CCCC2`: the inhibition result on Beta-secretase 1 [1] is “inactive”. For the same molecule, the half-maximal inhibitory concentration (IC50) amounted to 586 nM against Cholinesterase, 48.1 nM against Acetylcholinesterase [4] and 16.6 nM against Acetylcholinesterase [5]. The molecule also displayed an inhibition in data set [2] of 45.3%. The molecule further came in with a Papp in the data set “in vitro [3]” of 15.1 ×10⁻⁶ cm/s.
As for `Cl.Cl.Cl.Cl.O=C(NCCCCCCCNc1c2c(nc3cc(Cl)ccc13)CCCC2)c1ccc2nc(-c3ccc(Cl)cc3)c3c(c2c1)OCCC3`, the inhibition was 14.5% on Beta-secretase 1 [1] and 28.6% in data set [2]. The same molecule showed a Papp in the data set “in vitro [6]” of 17.7 ×10⁻⁶ cm/s. Besides, the results for the IC50 against Cholinesterase, against Acetylcholinesterase [4] and against Acetylcholinesterase [5] were 1930 nM, 10.3 nM and 18.3 nM, respectively.
In the case of `O=C(NCCCCCCCCCCNc1c2c(nc3cc(Cl)ccc13)CCCC2)c1ccc2nc(-c3ccc(Cl)cc3)c3c(c2c1)OCCC3`, the inhibition entry at Beta-secretase 1 [1] is “inactive”. Moreover, the results for the 50% inhibitory concentration (IC50) at Cholinesterase, at Acetylcholinesterase [4] and against Acetylcholinesterase [5] were 1620 nM, 93.7 nM and 50 nM, respectively. Moreover, the inhibition in [2] was 20.5%.
For the molecule `CN(C)CCCN1c2ccccc2Sc2ccc(Cl)cc21` [CHLORPROMAZINE], the Papp in the data set “in vitro [6]” was 13.6 ×10⁻⁶ cm/s; in “in vitro [3]”, 8.5 ×10⁻⁶ cm/s.
Take `CC[N+](C)(CC)CCC[n+]1c(-c2ccccc2)c2cc(N)ccc2c2ccc(N)cc21` [PROPIDIUM]: the IC50 against Acetylcholinesterase [4] turned out to be 6290 nM. This molecule also showed an inhibition in data set [2] of 89.8%.
For the molecule `Cl.Cl.O=C(CCc1ccc2nc(-c3ccccc3)c3c(c2c1)OCCC3)NCCCCCNc1c2c(nc3cc(Cl)ccc13)CCCC2`, the inhibition result on Beta-secretase 1 [1] is “inactive”. Moreover, the Papp in “in vitro [6]” was 10.6 ×10⁻⁶ cm/s. Besides, the IC50 against Cholinesterase was 290 nM; against Acetylcholinesterase [4], 23.9 nM; against Acetylcholinesterase [5] it was 9.64 nM. In data set [2], the inhibition came out at 12.2%.
As to `c1ccc2c(NCCCCCCCNc3c4c(nc5ccccc35)CCCC4)c3c(nc2c1)CCCC3`, at Beta-secretase 1 [7], the concentration for half-maximal inhibition (IC50) worked out at 7500 nM.
Consider `Cl.Cl.Cl.O=C(CCc1ccc2nc(-c3ccccc3)c3c(c2c1)OCCC3)NCCCCCCCNc1c2c(nc3cc(Cl)ccc13)CCCC2`, for which the inhibition on Beta-secretase 1 [1] was 34.4%; in data set [2], 49.1%. Further, in the data set “in vitro [6]”, the Papp is 10.2 ×10⁻⁶ cm/s. For the same molecule, the IC50 was found to be 234 nM against Cholinesterase, 29.9 nM at Acetylcholinesterase [4] and 14.4 nM against Acetylcholinesterase [5].
Regarding `Cl.Cl.Cl.Cl.O=C(NCCCCCCNc1c2c(nc3cc(Cl)ccc13)CCCC2)c1ccc2nc(-c3ccc(Cl)cc3)c3c(c2c1)OCCC3`, the inhibition entry at Beta-secretase 1 [1] was “inactive”. For the same molecule, the Papp in the data set “in vitro [6]” was found to be 14.9 ×10⁻⁶ cm/s. The figures for the concentration for half-maximal inhibition (IC50) on Cholinesterase, against Acetylcholinesterase [4] and on Acetylcholinesterase [5] were 1070 nM, 20.4 nM and 19.2 nM, respectively. In data set [2], this molecule displayed an inhibition of 16.4%.
Take `O=C(NCCCCCCCCNc1c2c(nc3cc(Cl)ccc13)CCCC2)c1ccc2nc(-c3ccc(Cl)cc3)c3c(c2c1)OCCC3`: the inhibition on Beta-secretase 1 [1] was 18.5%; in data set [2] it was 21.5%. Also, the figures for the IC50 against Cholinesterase, against Acetylcholinesterase [4] and against Acetylcholinesterase [5] were 331 nM, 10.4 nM and 7.03 nM, respectively. Also, the Ki on Acetylcholinesterase [8] was 1.91 nM.
As to `COC(=O)CCc1ccc2nc(-c3ccccc3)c3c(c2c1)OCCC3`, the inhibition entry (on Beta-secretase 1 [1]; in data set [2]) was “inactive” each time. For the same molecule, the concentration for half-maximal inhibition (IC50) against Acetylcholinesterase [4] is over 10000 nM.

Values taken from ChEMBL document CHEMBL1152433, “Pyrano[3,2-c]quinoline-6-chlorotacrine hybrids as a novel family of acetylcholinesterase- and beta-amyloid-directed anti-Alzheimer compounds” (J Med Chem, 2009).
